In US20220056019A1, “FARNESOID X RECEPTOR AGONISTS AND USES THEREOF” (Metacrine, Inc., priority 2018, published 2022):

The molecules below were run against T1, hFXR (Homo sapiens, UniProt Q96RI1) (assay: In Vitro FXR Assay (TK): TK-ECRE-luc reporter in transfected CV-1 cells). Details: 18 hrs incubation, luminescence.
T1 construct: expressed in transfected cells; host or cells: CV-1 cells
T1 sequence (Q96RI1 1-486): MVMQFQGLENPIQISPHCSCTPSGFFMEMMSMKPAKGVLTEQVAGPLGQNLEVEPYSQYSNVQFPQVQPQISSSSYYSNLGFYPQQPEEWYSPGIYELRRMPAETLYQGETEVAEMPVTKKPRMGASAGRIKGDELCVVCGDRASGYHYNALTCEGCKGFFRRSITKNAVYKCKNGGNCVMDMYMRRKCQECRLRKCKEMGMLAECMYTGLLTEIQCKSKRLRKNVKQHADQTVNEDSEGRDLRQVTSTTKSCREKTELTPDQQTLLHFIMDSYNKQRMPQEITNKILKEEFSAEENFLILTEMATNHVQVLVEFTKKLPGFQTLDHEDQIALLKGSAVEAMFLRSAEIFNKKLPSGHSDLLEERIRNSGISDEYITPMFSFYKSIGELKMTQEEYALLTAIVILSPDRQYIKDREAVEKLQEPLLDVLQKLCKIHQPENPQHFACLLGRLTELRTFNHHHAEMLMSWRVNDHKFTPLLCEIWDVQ
T1 sequence (P19793 1-462 partner): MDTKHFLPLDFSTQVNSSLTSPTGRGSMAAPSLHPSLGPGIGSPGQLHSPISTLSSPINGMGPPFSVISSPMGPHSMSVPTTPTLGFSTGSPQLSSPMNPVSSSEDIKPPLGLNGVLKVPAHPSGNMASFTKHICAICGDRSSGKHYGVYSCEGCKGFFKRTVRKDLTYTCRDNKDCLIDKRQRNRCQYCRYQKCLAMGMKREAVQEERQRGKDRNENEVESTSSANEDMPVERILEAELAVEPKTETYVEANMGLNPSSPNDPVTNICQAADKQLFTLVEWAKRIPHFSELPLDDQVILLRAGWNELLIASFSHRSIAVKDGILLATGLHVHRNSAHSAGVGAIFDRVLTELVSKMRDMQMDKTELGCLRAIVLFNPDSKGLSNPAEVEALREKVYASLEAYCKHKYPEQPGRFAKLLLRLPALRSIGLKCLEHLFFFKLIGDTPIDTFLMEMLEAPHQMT
Type: cell-based
Summary of the method: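 CV-1, DMEM/10% charcoal-stripped FBS, 37 °C 5% CO2. Transfection O/N: hFXR + hRXR + TK-ECRE-luc + pCMX-YFP. Cpds (DMSO serial dil.) 18 h; lyse, read luminescence.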

EC50, ≤ 50 nM:
COc1ccc(C23CCC(CN(c4ccnc(-c5cnn(C(C)C)c5)c4)C(=O)[C@H]4CC[C@H](OC(=O)N5CC(O)C5)CC4)(CC2)CC3)cc1C [Compound 4.59, 4-((2-(1-Isopropyl-1H-pyrazol-4-yl)pyridin-4-yl) ((4-(4-methoxy-3-methylphenyl)bicyclo [2.2.2]octan-1-yl)methyl)carbamoyl)(trans-cyclohexyl) 3-hydroxyazetidine-1-carboxylate]
COc1ccc([C@H]2CC[C@H](CN(c3cccc(-c4cnn(C(C)C)c4)c3)C(=O)[C@H]3CC[C@H](NC(=O)OC4COC4)CC3)CC2)cc1C [Compound 6.05, Oxetan-3-yl (trans-4-((3-(1-isopropyl-1H-pyrazol-4-yl)phenyl)((trans-4-(4-methoxy-3-methylphenyl)cyclohexyl)meth-yl)carbamoyl)cyclohexyl)carbamate]
COc1ccc(C23CCC(CN(c4cc(-c5cnn(C(C)C)c5)ccn4)C(=O)[C@H]4CC[C@H](NC(C)=O)CC4)(CC2)CC3)cc1C [Compound 10.05, trans-4-Acetamido-N-(4-(1-isopropyl-1H-pyrazol-4-yl)pyridin-2-yl)-N-((4-(4-methoxy-3-methylphenyl)bicyclo[2.2.2]octan-1-yl)methyl)cyclohexane-carboxamide]
COc1ccc([C@H]2CC[C@H](CN(c3cc(-c4cnn(C(F)(F)F)c4)ccn3)C(=O)[C@H]3CC[C@H](OC(=O)N4CC(O)C4)CC3)CC2)cc1C [Compound 2.57, trans-4-((((trans)-4-(4-Methoxy-3-methylphenyl)cyclohexyl)methyl) (4-(1-(trifluoromethyl)-1H-pyrazol-4-yl)pyridin-2-yl)carbamoyl)cyclohexyl 3-hydroxyazetidine-1-carboxylate]
